Consider 23 compounds from patent publication US20090042883A1, “ANTITUMOR AGENT” (KYOWA HAKKOKOGYO CO., priority 2005, published 2009).

The first series deals with human prostate cancer 22Rv1 cells. In words: Antitumor effect in vivo, mouse model transplanted with human prostate cancer 22Rv1 cells. Particulars: 22Rv1 subcutaneous transplant in BALB/cAJc1-nu mice; 100 mg/kg intravenously twice a day on days 0 to 4; tumor volume to day 17. As for the experimental part: Using an experimental system in which human prostate cancer 22Rv1 cells were transplanted into immunodeficient mice as disease models of solid tumor, the antitumor effect in vivo of Compound 33 was examined.
(§1) 22Rv1 cells were cultured and grown in RPMI1640 medium containing 10% fetal calf serum (FCS) in a 5% carbon dioxide incubator at 37° C., and the cultured cells (1×10^7 cells/mouse) were subcutaneously, ventrally transplanted into BALB/cAJc1-nu mice (CLEA Japan). Seventeen days after the transplantation, the major axis and minor axis of the tumors subcutaneously grown were measured with slide calipers, and the tumor volume was determined according to the following formula: […]
(§2) At the same time, the body weight of each mouse was measured, and the mice were divided into two groups, i.e., a group to be administered with drugs and a group not to be administered with drugs, such that each group consists of five mice with various weights and tumor volumes. This day was defined as day 0 of the administration test. Drug administration was started in the following manner. […]
Consider `CCc1c(O)cc(O)c(C(=O)c2ccc(OC)cc2)c1CC(=O)N(CCO)CCOC` [Compound 33], for which the “antitumor effect in vivo (tumor volume, FIG. 3)” value is on record as “apparent suppression of tumor growth”.

The subject of another series is human lung cancer NCI-H596 cells. Put plainly: Antitumor effect in vivo, mouse model transplanted with human lung cancer NCI-H596 cells. Particulars: NCI-H596 subcutaneous transplant in BALB/cAJc1-nu mice; 50 mg/kg intravenously twice a day on days 0 to 4; tumor volume to day 17. As for the experimental part:
Using an experimental system in which human lung cancer NCI-H596 cells were transplanted into immunodeficient mice as disease models of solid tumor, the antitumor effect in vivo of Compound 33 was examined.
as §1, with “NCI-H596” for “22Rv1”, “Japan). From the mice in which tumors were formed, the tumors were removed. The tumor tissues were cut into small pieces of about 8 mm^3, which were subcutaneously, ventrally transplanted, using a trocar needle, into BALB/cAJc1-nu mice (CLEA Japan) to be used for experiment.” for “Japan).”
as §2
For the compound `CCc1c(O)cc(O)c(C(=O)c2ccc(OC)cc2)c1CC(=O)N(CCO)CCOC` [Compound 33], the “antitumor effect in vivo (tumor volume, FIG. 2)” value is given as “apparent suppression of tumor growth”.

The subject of the next series is human chronic myelocytic leukemia K562 cells. Put plainly: Antitumor effect in vivo, mouse model transplanted with human chronic myelocytic leukemia K562 cells. Particulars: K562 subcutaneous transplant in Fox C.B-17/Icr-scid mice; 100 mg/kg intravenously twice a day on days 0, 1, 2, 7, 8, 9; tumor volume to day 22. As for the experimental part:
Using an experimental system in which human chronic myelocytic leukemia K562 cells were transplanted into immunodeficient mice as disease models of hematopoietic tumor, the antitumor effect in vivo of Compound 33 was examined.
as §1, with “One day before the transplantation of cancer cells, an anti-asialo GM1 antibody was intraabdominally administered to Fox C.B-17/Icr-scidJc1 mice (CLEA Japan) in an amount of 0.3 mg per mouse. K562” for “22Rv1”, “the mice. Ten” for “BALB/cAJc1-nu mice (CLEA Japan). Seventeen”
as §2
In the case of `CCc1c(O)cc(O)c(C(=O)c2ccc(OC)cc2)c1CC(=O)N(CCO)CCOC` [Compound 33], the “antitumor effect in vivo (tumor volume, FIG. 1)” value is “apparent suppression of tumor growth”.

Another series concerns human multiple myeloma NCI-H929 cells. Put plainly: Growth inhibition test on human multiple myeloma NCI-H929 cells (WST-1, % viability). It counts as cell-based. Particulars: test compound 10 μmol/L, cells without test compound = 100%. The procedure:
Ten thousand cells of human multiple myeloma NCI-H929 were inoculated into each well of a 96-well microplate (manufactured by Nunc Corp.), and using RPMI medium (culture medium) containing 10% FCS, preculturing was performed in a 5% carbon dioxide incubator at 37° C. for 24 hours. A DMSO solution of each test compound prepared in a concentration of 10 mmol/L was diluted with the culture medium to a final concentration of 10 μmol/L, and the diluted solution was added to each well. The individual wells were further cultured in the 5% carbon dioxide incubator at 37° C. for 72 hours. After completion of the culturing, 10 μL of WST-1 labeled mixture (manufactured by Roche Diagnostic Corp.) was added to each well, and culturing was performed in the 5% carbon dioxide incubator at 37° C. for 2 hours. Using a microplate spectrophotometer (SpectraMax 340PC384; manufactured by Nihon Molecular Devices), the absorbance of each well was measured at 450 nm and 655 nm. The value obtained by subtracting the absorbance at 450 nm from the absorbance at 655 nm (absorbance difference) was calculated for each well. The value for cells not incorporated with a test compound was designated as 100%, and the value at a well not containing cells was designated as 0%. By comparing these values with the absorbance difference obtained at the well in which each test compound was added, the cell viability (% viability) after treatment with the test compound was calculated.
As to `CCc1c(O)cc(O)c(C(=O)c2ccc(OC(C)C)cc2)c1CC(=O)N(CCOC)CCN1CCOCC1` [Compound 134], the “Viability of tumor cells (% viability), Human multiple myeloma NCI-H929 cells” value (“Viability of tumor cells (% viability)” below) was determined as 0%.
`CCc1c(O)cc(O)c(C(=O)c2ccc(OCCN3CCOCC3)c(OC)c2)c1CC(=O)N(CCOC)CCOC.Cl` [Compound 139]: the “Viability of tumor cells (% viability)” value is on record as 0%.
Take `CCc1c(O)cc(O)c(C(=O)c2ccc(OC)c(OC)c2)c1CC(=O)N(CCO)CCOC` [Compound 56]: the “Viability of tumor cells (% viability)” value was 0%.
`CCc1c(O)cc(O)c(C(=O)c2ccc(OC)cc2)c1CC(=O)N1CCN(c2ccccc2C#N)CC1` [Compound 17]: the “Viability of tumor cells (% viability)” value stood at 0%.
For `CCc1c(O)cc(O)c(C(=O)c2ccc(OC)cc2)c1CC(=O)N1CCc2cc(OC)c(OC)cc2C1` [Compound 38], the “Viability of tumor cells (% viability)” value was found to be 0%.
Still for that read-out and setting: next, `CCc1c(O)cc(O)c(C(=O)c2ccc(S(C)(=O)=O)cc2)c1CC(=O)N(CCOC)CCOC` [Compound 107]: 0%; `CCc1c(O)cc(O)c(C(=O)c2ccc(OC)cc2)c1CC(=O)N(C)Cc1cccnc1` [Compound 16]: 0%.
Still for that read-out and setting: next, `CCc1c(O)cc(O)c(C(=O)c2ccc(OC(F)(F)F)cc2)c1CC(=O)N(CCO)CCOC` [Compound 88]: 0%; `CCc1c(O)cc(O)c(C(=O)c2ccc(OC(C)C)cc2)c1CC(=O)N(CCO)CCOC` [Compound 124]: 0%; `CCc1c(O)cc(O)c(C(=O)c2ccc(SC)cc2)c1CC(=O)N(CCO)CCOC` [Compound 95]: 0%.
Still for that read-out and setting: with `CCc1c(O)cc(O)c(C(=O)c2ccc(OCCN3CCOCC3)c(OC)c2)c1CC(=O)N(CCOC)CCOC` [Compound 125] the figure was 0%; with `CCc1c(O)cc(O)c(C(=O)c2ccc(OC)cc2)c1CC(=O)N1CCN(c2ncccn2)CC1` [Compound 32], 0%; with `CCc1c(O)cc(O)c(C(=O)c2ccc(OC)c(OC)c2)c1CC(=O)N1CCN(c2ccccc2)CC1` [Compound 41], 0%.
Turning to `CCc1c(O)cc(O)c(C(=O)c2ccsc2)c1CC(=O)N(CCO)CCOC` [Compound 151], the “Viability of tumor cells (% viability)” value amounted to 0%.
The same measure, in the same setting: next, `CCc1c(O)cc(O)c(C(=O)c2ccc(OC)cc2)c1CC(=O)N1CCC(CO)CC1` [Compound 61]: 0%; `CCc1c(O)cc(O)c(C(=O)c2ccc(OCCCN3CCOCC3)c(OC)c2)c1CC(=O)N(CCOC)CCOC` [Compound 149]: 0%; `CCc1c(O)cc(O)c(C(=O)c2ccc(OC(F)F)cc2)c1CC(=O)N(CCO)CCOC` [Compound 91]: 0%.
Turning to `CCc1c(O)cc(O)c(C(=O)c2ccc(O)c(OC)c2)c1CC(=O)N(CCOC)CCOC` [Compound 106], the “Viability of tumor cells (% viability)” value was 0%.
Still for that read-out and setting: next, `CCc1c(O)cc(O)c(C(=O)c2ccc(C(F)(F)F)cc2)c1CC(=O)N(CCO)CCOC` [Compound 144]: 0%; `CCc1c(O)cc(O)c(C(=O)c2ccc(OC)cc2)c1CC(=O)N(CCO)CCOC` [Compound 33]: 0%; `CCc1c(O)cc(O)c(C(=O)c2ccc(OC)cc2)c1CC(=O)N(CCO)Cc1ccco1` [Compound 69]: 0%.
Still for that read-out and setting: with `CCc1c(O)cc(O)c(C(=O)c2ccc(OC)cc2)c1CC(=O)N(CCO)CCO` [Compound 13] the figure was 0%; with `CCOc1ccc(C(=O)c2c(O)cc(O)c(CC)c2CC(=O)N(CCO)CCOC)cc1` [Compound 122], 0%.
